Results on 4 compounds are retold here after patent US20230265151A1, “GIP/GLP1 CO-AGONIST COMPOUNDS” (priority 2020, published 2023).

Format in all cases: cell-based
One assay deals with T1, hGIPR (Homo sapiens, UniProt P48546).
T1 construct: expressed in transfected cells
T1 sequence (P48546 22-466): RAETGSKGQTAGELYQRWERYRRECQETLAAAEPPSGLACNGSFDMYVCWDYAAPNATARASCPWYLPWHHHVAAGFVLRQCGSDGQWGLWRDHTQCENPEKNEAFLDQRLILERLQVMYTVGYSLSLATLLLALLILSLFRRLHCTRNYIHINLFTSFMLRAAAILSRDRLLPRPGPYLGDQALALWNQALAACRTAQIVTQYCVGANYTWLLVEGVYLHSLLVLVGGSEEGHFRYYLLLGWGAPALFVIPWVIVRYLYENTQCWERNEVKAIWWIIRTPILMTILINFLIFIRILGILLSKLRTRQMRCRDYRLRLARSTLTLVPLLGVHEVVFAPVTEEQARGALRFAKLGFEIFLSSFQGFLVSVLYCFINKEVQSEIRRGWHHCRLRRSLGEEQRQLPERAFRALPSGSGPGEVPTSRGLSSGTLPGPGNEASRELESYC
Briefly: Functional cAMP formation (HTRF) in HEK-293 clonal cells expressing hGIPR, 0.1% bovine casein, without or with 1.0% human serum albumin. The conditions noted are these: for EC50: cAMP, 0.1% bovine casein (no human serum albumin), geometric mean. A digest of the protocol:
(§1)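 Cells were stimulated with peptide for 30 min at 37° C, then intracellular cAMP was measured by competitive HTRF (665/620 nm ratio) and converted to nM using a cAMP standard curve. Relative EC50 and Emax came from four-parameter logistic fits of percent maximal response against peptide concentration.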
For orientation: Cyclic AMP is a second messenger, typically raised through Gs and lowered through Gi signalling.

The target of the next assay is T2, hGCGR (Homo sapiens, UniProt P47871).
T2 construct: expressed in transfected cells
Put plainly: Functional cAMP formation (HTRF) in HEK-293 clonal cells expressing hGCGR, 0.1% bovine casein, without or with 1.0% human serum albumin. In outline:
as §1

Another assay addresses hGLP-1R (Homo sapiens, UniProt P43220). Briefly: Functional cAMP formation (HTRF) in HEK-293 clonal cells expressing hGLP-1R, 0.1% bovine casein, without or with 1.0% human serum albumin. The conditions noted are these: for EC50: cAMP, 0.1% bovine casein (no human serum albumin), geometric mean. Set-up: expressed in transfected cells. A digest of the protocol: as §1

Each structure is given as a SMILES string. Where two headings read alike, the source gives them in different places. *1 amine or outer side, *2 acyl side, *3 side chain or, on linkers, in order; H or OH if unused. Where a SMILES comes first, the peptide text is derived from it. Side-chain parts run from the residue outwards. [ ]: non-standard residue; d: D form. The star is where a group is joined. Undecanoyl(11-OPh(4-COOH)) = O=C(O)c1ccc(OCCCCCCCCCCC(=O)*)cc1; αMePhe(2-F) = C[C@](N)(Cc1ccccc1F)C(=O)O; γGlu = O=C(O)[C@H](CCC(=O)[*:2])N[*:1]; αMeY = C[C@](N)(Cc1ccc(O)cc1)C(=O)O; 4Pal = N[C@@H](Cc1ccncc1)C(=O)O; αMeL = CC(C)C[C@](C)(N)C(=O)O; Orn = NCCC[C@H](N)C(=O)O; AEEA = NCCOCCOCC(=O)O; Aib = CC(C)(N)C(=O)O Some results are limits rather than exact numbers.

Sequence of hGLP-1R (P43220 24-463): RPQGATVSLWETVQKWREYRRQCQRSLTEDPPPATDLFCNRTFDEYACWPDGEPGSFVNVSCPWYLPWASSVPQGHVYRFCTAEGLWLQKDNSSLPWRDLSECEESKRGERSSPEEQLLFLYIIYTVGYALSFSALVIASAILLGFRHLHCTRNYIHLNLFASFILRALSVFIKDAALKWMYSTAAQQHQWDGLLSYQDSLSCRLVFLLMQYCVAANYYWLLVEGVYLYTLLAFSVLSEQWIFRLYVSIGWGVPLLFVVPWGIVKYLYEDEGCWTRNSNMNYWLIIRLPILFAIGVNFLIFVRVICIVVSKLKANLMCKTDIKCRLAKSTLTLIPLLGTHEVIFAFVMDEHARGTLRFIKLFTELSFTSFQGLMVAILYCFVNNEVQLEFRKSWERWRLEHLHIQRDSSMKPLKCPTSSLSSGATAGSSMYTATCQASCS
T2 sequence (P47871 26-477): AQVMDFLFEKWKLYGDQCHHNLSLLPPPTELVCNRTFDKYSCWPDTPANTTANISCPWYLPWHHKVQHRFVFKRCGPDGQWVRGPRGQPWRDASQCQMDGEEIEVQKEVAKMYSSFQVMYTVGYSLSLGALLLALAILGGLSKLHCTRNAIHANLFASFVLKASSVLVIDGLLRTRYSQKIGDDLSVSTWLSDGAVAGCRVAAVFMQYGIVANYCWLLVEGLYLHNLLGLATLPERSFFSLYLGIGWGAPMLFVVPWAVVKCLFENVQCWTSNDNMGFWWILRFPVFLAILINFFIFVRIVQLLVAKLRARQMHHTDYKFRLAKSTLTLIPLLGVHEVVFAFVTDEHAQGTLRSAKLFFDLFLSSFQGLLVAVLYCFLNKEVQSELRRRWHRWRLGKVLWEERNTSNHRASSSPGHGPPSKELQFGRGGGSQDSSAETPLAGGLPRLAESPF

The Emax is the size of the effect at its maximum, as opposed to the concentration needed. As a reminder, the EC50 is the concentration needed to bring the measured effect to its halfway point. Consider `CC[C@H](C)[C@H](NC(=O)[C@H](CC(C)C)NC(=O)[C@](C)(Cc1ccc(O)cc1)NC(=O)[C@@H](CCC(=O)O)NC(=O)[C@@H](NC(=O)[C@H](Cc1ccccc1)NC(=O)[C@H](CCCCNC(=O)COCCOCCNC(=O)COCCOCCNC(=O)CC[C@H](NC(=O)CCCCCCCCCCCCC(=O)O)C(=O)O)NC(=O)C(C)(C)NC(=O)[C@H](CCC(N)=O)NC(=O)[C@H](C)NC(=O)[C@H](CCCCNC(=O)COCCOCCNC(=O)COCCOCCNC(=O)CC[C@H](NC(=O)CCCCCCCCCCCCC(=O)O)C(=O)O)NC(=O)[C@H](CCCN)NC(=O)[C@H](CC(=O)O)NC(=O)[C@H](CC(C)C)NC(=O)[C@](C)(CC(C)C)NC(=O)[C@@H](NC(=O)C(C)(C)NC(=O)[C@H](Cc1ccncc1)NC(=O)[C@H](CC(=O)O)NC(=O)[C@H](CO)NC(=O)[C@@H](NC(=O)[C@](C)(Cc1ccccc1F)NC(=O)[C@@H](NC(=O)CNC(=O)[C@H](CCC(=O)O)NC(=O)C(C)(C)NC(=O)[C@@H](N)Cc1ccc(O)cc1)[C@@H](C)O)[C@@H](C)O)[C@@H](C)CC)[C@@H](C)CC)C(=O)N[C@@H](CCC(=O)O)C(=O)NCC(=O)NCC(=O)N1CCC[C@H]1C(=O)N[C@@H](CO)C(=O)N[C@@H](CO)C(=O)NCC(=O)N[C@@H](C)C(=O)N1CCC[C@H]1C(=O)N1CCC[C@H]1C(=O)N1CCC[C@H]1C(=O)N[C@@H](CO)C(N)=O` [Example 357], for which the Emax on hGIPR (HEK293, cAMP, 37° C., 0.1% bovine casein and 1.0% human serum albumin, percent of maximal response to GIP(1-42)NH2, read-out: hGIPR Emax, % ± SEM) turned out to be 78.2%; at hGLP-1R (HEK293, cAMP, 37° C., 0.1% bovine casein and 1.0% human serum albumin, percent of maximal response to GLP-1(7-36)NH2, read-out: hGLP-1R Emax, % ± SEM), 92.8%. In addition, the EC50 at hGIPR (37° C., read-out: hGIPR EC50, nM (SEM, n)) was 0.011 nM; at hGCGR (cAMP, 37° C., 0.1% bovine casein (no human serum albumin), geometric mean, read-out: hGCGR EC50, nM (SEM, n)) it was more than 10100 nM; on hGCGR (cAMP, 37° C., 0.1% bovine casein and 1.0% human serum albumin, geometric mean (SEM, n), read-out: hGCGR EC50, nM (SEM, n)) it was more than 9950 nM; at hGLP-1R (37° C., read-out: hGLP-1R EC50, nM (SEM, n)), 0.649 nM.

Regarding `CC[C@H](C)[C@H](NC(=O)[C@H](CCCN)NC(=O)[C@H](CC(=O)O)NC(=O)[C@H](CC(C)C)NC(=O)[C@](C)(CC(C)C)NC(=O)[C@@H](NC(=O)C(C)(C)NC(=O)[C@H](Cc1ccncc1)NC(=O)[C@H](CC(=O)O)NC(=O)[C@H](CO)NC(=O)[C@@H](NC(=O)[C@](C)(Cc1ccccc1F)NC(=O)[C@@H](NC(=O)CNC(=O)[C@H](CCC(=O)O)NC(=O)C(C)(C)NC(=O)[C@@H](N)Cc1ccc(O)cc1)[C@@H](C)O)[C@@H](C)O)[C@@H](C)CC)C(=O)N[C@@H](C)C(=O)N[C@@H](CCC(N)=O)C(=O)NC(C)(C)C(=O)N[C@@H](CCCCNC(=O)COCCOCCNC(=O)COCCOCCNC(=O)CC[C@H](NC(=O)CCCCCCCCCCOc1ccc(C(=O)O)cc1)C(=O)O)C(=O)N[C@@H](Cc1ccccc1)C(=O)N[C@H](C(=O)N[C@H](CCC(=O)O)C(=O)N[C@@](C)(Cc1ccc(O)cc1)C(=O)N[C@@H](CC(C)C)C(=O)N[C@H](C(=O)N[C@@H](CCC(=O)O)C(=O)NCC(=O)NCC(=O)N1CCC[C@H]1C(=O)N[C@@H](CO)C(=O)N[C@@H](CO)C(=O)NCC(=O)N[C@@H](C)C(=O)N1CCC[C@H]1C(=O)N1CCC[C@H]1C(=O)N1CCC[C@H]1C(=O)N[C@@H](CO)C(=O)N[C@@H](CCCCNC(=O)COCCOCCNC(=O)COCCOCCNC(=O)CC[C@H](NC(=O)CCCCCCCCCCOc1ccc(C(=O)O)cc1)C(=O)O)C(N)=O)[C@@H](C)CC)[C@@H](C)CC` [Example 242] (H-Y[Aib]EGT[αMePhe(2-F)]TSD[4Pal][Aib]I[αMeL]LD[Orn]IAQ[Aib]K([AEEA-AEEA-γGlu-Undecanoyl(11-OPh(4-COOH))])FI[dE][αMeY]LIEGGPSSGAPPPSK([AEEA-AEEA-γGlu-Undecanoyl(11-OPh(4-COOH))])-NH2), the Emax at hGIPR (HEK293, read-out: hGIPR Emax, % ± SEM, 0.1% bovine casein and 1.0% human serum albumin, 37° C., percent of maximal response to GIP(1-42)NH2) was 83.9%; on hGIPR (HEK293, read-out: hGIPR Emax, % ± SEM, percent of maximal response to GIP(1-42)NH2, 37° C., 0.1% bovine casein, arithmetic mean) it was 100%; on hGLP-1R (HEK293, read-out: hGLP-1R Emax, % ± SEM, percent of maximal response to GLP-1(7-36)NH2, 37° C., 0.1% bovine casein, arithmetic mean) it was 96.3%. Also, the EC50 on hGIPR (hGIPR EC50, nM (SEM, n), incubated at 37° C.) is 0.0197 nM; at hGCGR (hGCGR EC50, nM (SEM, n), 0.1% bovine casein and 1.0% human serum albumin, 37° C., geometric mean), more than 9950 nM; at hGCGR (hGCGR EC50, nM (SEM, n), cAMP, incubated at 37° C., 0.1% bovine casein (no human serum albumin), geometric mean), more than 9950 nM; at hGLP-1R (hGLP-1R EC50, nM (SEM, n), incubated at 37° C.), 0.584 nM.

With `CC[C@H](C)[C@H](NC(=O)[C@H](CCCN)NC(=O)[C@H](CC(=O)O)NC(=O)[C@H](CC(C)C)NC(=O)[C@](C)(CC(C)C)NC(=O)[C@@H](NC(=O)C(C)(C)NC(=O)[C@H](Cc1ccncc1)NC(=O)[C@H](CC(=O)O)NC(=O)[C@H](CO)NC(=O)[C@@H](NC(=O)[C@](C)(Cc1ccccc1F)NC(=O)[C@@H](NC(=O)CNC(=O)[C@H](CCC(=O)O)NC(=O)C(C)(C)NC(=O)[C@@H](N)Cc1ccc(O)cc1)[C@@H](C)O)[C@@H](C)O)[C@@H](C)CC)C(=O)N[C@@H](C)C(=O)N[C@@H](CCC(N)=O)C(=O)NC(C)(C)C(=O)N[C@@H](CCCCNC(=O)COCCOCCNC(=O)COCCOCCNC(=O)CC[C@H](NC(=O)CCCCCCCCCCOc1ccc(C(=O)O)cc1)C(=O)O)C(=O)N[C@@H](Cc1ccccc1)C(=O)N[C@H](C(=O)N[C@H](CCC(=O)O)C(=O)N[C@@](C)(Cc1ccc(O)cc1)C(=O)N[C@@H](CC(C)C)C(=O)N[C@H](C(=O)N[C@@H](CCCCNC(=O)COCCOCCNC(=O)COCCOCCNC(=O)CC[C@H](NC(=O)CCCCCCCCCCOc1ccc(C(=O)O)cc1)C(=O)O)C(=O)NCC(=O)NCC(=O)N1CCC[C@H]1C(=O)N[C@@H](CO)C(=O)N[C@@H](CO)C(=O)NCC(=O)N[C@@H](C)C(=O)N1CCC[C@H]1C(=O)N1CCC[C@H]1C(=O)N1CCC[C@H]1C(=O)N[C@@H](CO)C(N)=O)[C@@H](C)CC)[C@@H](C)CC` [Example 331], the EC50 was 0.0113 nM at hGIPR (hGIPR EC50, nM (SEM, n), 37° C.); more than 9950 nM at hGCGR (hGCGR EC50, nM (SEM, n), cAMP, 37° C., 0.1% bovine casein (no human serum albumin), geometric mean); more than 9950 nM on hGCGR (hGCGR EC50, nM (SEM, n), cAMP, 37° C., 0.1% bovine casein and 1.0% human serum albumin, geometric mean (SEM, n)); 0.436 nM at hGLP-1R (hGLP-1R EC50, nM (SEM, n), 37° C.). Also, the Emax at hGLP-1R (HEK293, read-out: hGLP-1R Emax, % ± SEM, cAMP, 37° C., 0.1% bovine casein and 1.0% human serum albumin, percent of maximal response to GLP-1(7-36)NH2) turned out to be 114%.

For `CC[C@H](C)[C@H](NC(=O)[C@H](CC(C)C)NC(=O)[C@](C)(Cc1ccc(O)cc1)NC(=O)[C@@H](CCC(=O)O)NC(=O)[C@@H](NC(=O)[C@H](Cc1ccccc1)NC(=O)[C@H](CCC(=O)O)NC(=O)C(C)(C)NC(=O)[C@H](CCC(N)=O)NC(=O)[C@H](C)NC(=O)[C@H](CCCCNC(=O)COCCOCCNC(=O)COCCOCCNC(=O)CC[C@H](NC(=O)CCCCCCCCCCCCC(=O)O)C(=O)O)NC(=O)[C@H](CCCN)NC(=O)[C@H](CC(=O)O)NC(=O)[C@H](CC(C)C)NC(=O)[C@](C)(CC(C)C)NC(=O)[C@@H](NC(=O)[C@H](CO)NC(=O)[C@H](Cc1cscn1)NC(=O)[C@H](CC(=O)O)NC(=O)[C@H](CO)NC(=O)[C@@H](NC(=O)[C@](C)(Cc1ccccc1F)NC(=O)[C@@H](NC(=O)CNC(=O)[C@H](CCC(=O)O)NC(=O)C(C)(C)NC(=O)[C@@H](N)Cc1ccc(O)cc1)[C@@H](C)O)[C@@H](C)O)[C@@H](C)CC)[C@@H](C)CC)C(=O)N[C@@H](CCC(=O)O)C(=O)NCC(=O)NCC(=O)N[C@@H](CCCCNC(=O)COCCOCCNC(=O)COCCOCCNC(=O)CC[C@H](NC(=O)CCCCCCCCCCCCC(=O)O)C(=O)O)C(=O)N[C@@H](CO)C(=O)N[C@@H](CO)C(=O)NCC(=O)N[C@@H](C)C(=O)N1CCC[C@H]1C(=O)N1CCC[C@H]1C(=O)N1CCC[C@H]1C(=O)N[C@@H](CO)C(N)=O` [Example 144], the Emax at hGIPR (HEK293, percent of maximal response to GIP(1-42)NH2, 37° C., 0.1% bovine casein, arithmetic mean, read-out: hGIPR Emax, % ± SEM) amounted to 90%; at hGLP-1R (HEK293, percent of maximal response to GLP-1(7-36)NH2, 37° C., 0.1% bovine casein, arithmetic mean, read-out: hGLP-1R Emax, % ± SEM) it was 97%. Moreover, the EC50 was 0.0193 nM on hGIPR (incubated at 37° C., read-out: hGIPR EC50, nM (SEM, n)); more than 9950 nM at hGCGR (cAMP, incubated at 37° C., 0.1% bovine casein (no human serum albumin), geometric mean, read-out: hGCGR EC50, nM (SEM, n)); 3.47 nM on hGLP-1R (incubated at 37° C., read-out: hGLP-1R EC50, nM (SEM, n)).
